Laboratory results: US20240197596A1, “COMPOUNDS USEFUL AS HAIR DYES” (National University of Singapore, priority 2021, published 2024)
Entries after “also recorded” stand apart in the source; their conditions may differ.

Key:
IL-8 = IL-8 release assay (ELISA) in THP-1 cells; format: cell-based, human; conditions: CV75 dose, 24 h
Procedure: (§1) CV75 values (concentration showing 75% of THP-1 cell survival) were determined as per the procedure described above in section A of this method. The IL-8 and IL-1α release assay was performed as described in Toxicol In Vitro. 2003, 17(3), 311-321. A Chemokine immunosorbent assay Bio-legend ELISA Max kit was used to quantify the levels of available IL-8 and IL-1α protein. The supernatant media of untreated THP-1 cells was treated with standards, test samples N1-N13 and DMSO in 96 well plate and then was recovered after 24 h of culture. IL-8 and IL-1α was measured by ELISA in 96-well microtiter plates according to the manufacturer protocol (Biolegend, ELISA MAX™, Singapore).

[1] = Skin permeation study, Franz diffusion cell; format: in vitro ADME, porcine
Method in brief: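 Pig ear skin (~1 mm) in Franz cells with PBS receiver; donor was 900 μL of 1% w/v compound in water, run for 8 h. Receiver sampled every 15 min for the first hour, then hourly; samples DCM-extracted and quantified by LC-MS/MS with mass balance. Steady-state flux and permeability coefficient from the linear cumulative-amount region via Fick's law.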

IL-1α = IL-1α release assay (ELISA) in THP-1 cells; format: cell-based, human; conditions: CV75 dose, 24 h
Procedure: as §1

Hair nuance test = experiment: Hair nuance test; design: key to L* / a* / b*: CIELAB L*, a*, b* coordinates; key to ΔE (total colour difference to natural hair): ΔE = √((L*−L0)²+(a*−a0)²+(b*−b0)²) vs untreated hair
Method in brief: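 Undyed black hair was bleached twice (45 min under foil), immersed 20 min in dye formulations, air-dried, shampooed twice and conditioned 5 min. CIELAB L*, a*, b* of dyed hair were measured against untreated-hair baseline, giving colour-tone difference ΔH from a*/b* and total colour difference ΔE from L*/a*/b*.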

[2] = tested on: cysteine heptapeptide (Ac-RFAACAA-COOH) and lysine heptapeptide (Ac-RFAAKAA-COOH); experiment: Direct Peptide Reactivity Assay (DPRA); format: biochemical; conditions: from mean peptide depletion
Procedure: The assay was conducted on N1-N13 in triplicates with the respective solvent used to prepare compound stock solutions as control. A stock concentration of 20 mM was prepared instead of the recommended 100 mM by OECD due to scarcity of compounds. The various constituents of the incubation mixture were freshly prepared to prevent stability issues that could cause variations in results. An incubation mixture with the recommended peptide to test compound ratios of 1:10 for cysteine heptapeptide and 1:50 for lysine heptapeptide (OECD. Test No. 442C: In Chemico Skin Sensitisation 2020) was prepared then incubated at 25° C. for 24 h in a shaking incubator (Toxicol Sci. 2012; 129(2):421-31).
At 24 h, the incubation mixture was quenched with 75 μL of 95% ACN/H2O containing 200 μM Leucine Enkephalin (Internal Standard). For cysteine DPRA, 100 μL of quenched mixture was spiked into 90 μL of 2% ACN/H2O and 10 μL of freshly prepared 0.016 mM 1,4-Dithiothreitol (DTT) solution. DTT maintains the integrity of thiol groups by preventing the dimerization of thiol groups and degradation of di-adducts to mono-adducts. This second mixture was then incubated at 40° C. for 30 min in a shaking incubator. For lysine DPRA, 10 μL of quenched mixture was spiked into 190 μL of 2% ACN/H2O. All 200 μL of mixtures were transferred into a 96-well plate and sent for analysis with Liquid Chromatography-Tandem Mass Spectrometry (LC-MS/MS).

[3] = Type C (Oxidative with coupler resorcinol)

Question: For `CNCCOc1cc(N)ccc1N` [Compound N13, 2-(2-(methylamino)ethoxy)benzene-1,4-diamine], which “release of IL-8” value (IL-8) is on record?
Answer: slight elevation; also recorded: marginal release

Question: What about the “Cumulative amount at 8th hour” value ([1]; 1% w/v in deionized water, 8 h) of the same compound?
Answer: 0.0106 μg/cm^2

Question: And the “Permeated through skin into receptor” value ([1]; mass balance, 8 h)?
Answer: <0.001 % of applied compound dose

Question: What about the “Recovered in donor compartment” value ([1]; mass balance, 8 h) of the same compound?
Answer: 93.0 % of applied compound dose

Question: What about the Recovered in skin ([1]; mass balance, 8 h) of the same compound?
Answer: 0.03 % of applied compound dose

Question: What about the “Recovered in skin outside diffusion area” value ([1]; mass balance, 8 h) of the same compound?
Answer: 0.003 % of applied compound dose

Question: What about the “Recovered in skin swabs” value ([1]; mass balance, 8 h) of the same compound?
Answer: 0.02 % of applied compound dose

Question: And the “Recovered on parafilm and in washes” value ([1]; mass balance, 8 h)?
Answer: 0.003 % of applied compound dose

Question: What about the recovery at 8 h, 1 % w/v ([1]; pig, end of 8 h, read-out: Total recovery (mean percentage parent compound recovery)) of the same compound?
Answer: 93.1 ± 1.2%

Question: What about the “release of IL-1α” value (IL-1α) of the same compound?
Answer: slight elevation; also recorded: marginal release

Question: What about the “L*” value (Hair nuance test; Type A (Non-oxidative)) of the same compound?
Answer: 24

Question: And the “a*” value (Hair nuance test; Type A (Non-oxidative))?
Answer: 8

Question: And the “b*” value (Hair nuance test; Type A (Non-oxidative))?
Answer: 8

Question: What about the “ΔE (total colour difference to natural hair)” value (Hair nuance test; Type A (Non-oxidative)) of the same compound?
Answer: 18.38

Question: And the “ΔH (difference in colour tone)” value (Hair nuance test; Type A (Non-oxidative))?
Answer: 4.28

Question: What about the “L*” value (Hair nuance test; Type B (Oxidative)) of the same compound?
Answer: 36

Question: What about the “a*” value (Hair nuance test; Type B (Oxidative)) of the same compound?
Answer: 11

Question: What about the “b*” value (Hair nuance test; Type B (Oxidative)) of the same compound?
Answer: 18

Question: What about the “ΔE (total colour difference to natural hair)” value (Hair nuance test; Type B (Oxidative)) of the same compound?
Answer: 33.74

Question: And the “ΔH (difference in colour tone)” value (Hair nuance test; Type B (Oxidative))?
Answer: 5.8

Question: What about the “eventual colour of bleached hair, Type B” value (Hair nuance test; Type B (Oxidative, H2O2) formulation) of the same compound?
Answer: Grey

Question: What about the “L*” value (Hair nuance test; [3]) of the same compound?
Answer: 25

Question: What about the “a*” value (Hair nuance test; [3]) of the same compound?
Answer: 14

Question: What about the “b*” value (Hair nuance test; [3]) of the same compound?
Answer: 11

Question: What about the “ΔE (total colour difference to natural hair)” value (Hair nuance test; [3]) of the same compound?
Answer: 23.49

Question: And the “ΔH (difference in colour tone)” value (Hair nuance test; [3])?
Answer: 4.84

Question: And the “eventual colour of bleached hair, Type C” value (Hair nuance test; Type C (Oxidative with coupler resorcinol) formulation)?
Answer: Brown

Question: What about the “sensitizing potential (DPRA)” value [2] of the same compound?
Answer: moderate sensitizers
